From ChEMBL document CHEMBL1139702, “4'-Alkoxyl substitution enhancing the anti-mitotic effect of 5-(3',4',5'-substituted)anilino-4-hydroxy-8-nitroquinazolines as a novel class of anti-microtubule agents” (Bioorg Med Chem Lett, 2006)
Active and inactive are the calls of the source. The rule behind the calls is not given here.

Key:
[1] = test system: HGC-27; test: Cell cycle arrest in HGC27 cells by accumulation at G2/M phase at 50 uM after 24 hrs; type: functional; conditions: Homo sapiens, HGC-27, 24 h
[2] = test system: A549; test: Cell cycle arrest in A549 cells by accumulation at G2/M phase at 50 uM after 24 hrs; type: functional, cell-based; conditions: Homo sapiens
[3] = test system: HGC-27; test: Antiproliferative activity against HGC27 cells at 50 uM by MTT assay; type: functional, cell-based; conditions: Homo sapiens
[4] = test system: A549; test: Antiproliferative activity against A549 cells by MTT assay; type: functional, cell-based; conditions: Homo sapiens
[5] = test system: HGC-27; test: Antiproliferative activity against HGC27 cells by MTT assay; type: functional, cell-based; conditions: Homo sapiens

With COc1cc(Nc2ccc([N+](=O)[O-])c3ncnc(O)c23)cc(OC)c1OC as the compound, how does the inhibition at 50 µM [1] read?
The inhibition at 50 µM was 81%.

What about the Activity [2] of the same compound?
Its Activity is “Active”.

What about the Activity [3] of the same compound?
The Activity was “Active”.

Which Activity [3] does the source give for O=[N+]([O-])c1ccc(Nc2ccc(OCCCN3CCOCC3)cc2)c2c(O)ncnc12 here?
Its Activity is “Active”.

COC(=O)/C=C\c1ccc(C(=O)OCCOc2ccc(Nc3ccc([N+](=O)[O-])c4ncnc(O)c34)cc2)cc1 was tested. Which Activity [3] did it give?
Its Activity is “Active”.

O=[N+]([O-])c1ccc(Nc2ccc(OCc3ccccc3)c(Cl)c2)c2c(O)ncnc12 was tested. Which Activity [3] did it give?
Its Activity is “Active”.

COc1ccc(Nc2ccc([N+](=O)[O-])c3ncnc(O)c23)cc1Cl was tested. Which IC50 [4] did it give?
Its IC50 is 20 µM.

What about the IC50 [5] of the same compound?
Its IC50 is 20 µM.
